Source: ChEMBL document CHEMBL5465560, “Selectivity Literature for EUbOPEN Chemogenomic Library” (2024)

Tests used:
[1] = molecular target: Receptor tyrosine-protein kinase erbB-4 (Homo sapiens, UniProt Q15303); assay: Selectivity interaction (KinomeScan (DiscoverX)) EUB0000229b ERBB4; settings: at 10 µM
[2] = molecular target: Tyrosine-protein kinase HCK (Homo sapiens) (UniProt P08631); assay: Selectivity interaction (KinomeScan (DiscoverX)) EUB0000229b HCK; settings: at 10 µM
[3] = molecular target: T1, Tyrosine-protein kinase ITK/TSK (Homo sapiens) (UniProt Q08881); assay: Selectivity interaction (KinomeScan (DiscoverX)) EUB0000229b ITK; settings: at 10 µM
T1 sequence (whole entry): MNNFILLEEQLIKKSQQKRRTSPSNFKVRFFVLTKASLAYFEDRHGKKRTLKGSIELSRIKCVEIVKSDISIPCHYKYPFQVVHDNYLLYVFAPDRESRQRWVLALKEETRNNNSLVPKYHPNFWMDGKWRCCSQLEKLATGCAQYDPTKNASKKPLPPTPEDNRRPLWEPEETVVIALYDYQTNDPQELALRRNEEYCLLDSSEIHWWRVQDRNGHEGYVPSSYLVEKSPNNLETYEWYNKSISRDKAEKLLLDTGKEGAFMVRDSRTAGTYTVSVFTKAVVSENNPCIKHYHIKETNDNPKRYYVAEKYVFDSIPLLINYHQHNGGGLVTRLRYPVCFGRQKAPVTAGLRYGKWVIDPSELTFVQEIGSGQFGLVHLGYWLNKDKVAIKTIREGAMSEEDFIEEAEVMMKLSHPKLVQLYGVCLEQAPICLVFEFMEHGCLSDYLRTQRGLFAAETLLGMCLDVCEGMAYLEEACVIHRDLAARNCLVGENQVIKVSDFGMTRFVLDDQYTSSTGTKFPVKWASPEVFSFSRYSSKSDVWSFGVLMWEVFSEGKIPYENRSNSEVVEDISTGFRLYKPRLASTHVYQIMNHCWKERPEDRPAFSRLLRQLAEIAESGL

D(1A) dopamine receptor = D(1A) dopamine receptor (Homo sapiens, UniProt P21728); assay: Selectivity interaction (GPCR panel (PDSP screen)) EUB0001079a DRD1; settings: at 10 µM
[4] = molecular target: Ribosomal protein S6 kinase alpha-6 (Homo sapiens, UniProt Q9UK32); assay: Selectivity interaction (KinomeScan (DiscoverX)) EUB0000666a RPS6KA6; settings: at 10 µM
[5] = molecular target: T2, Aurora kinase A (Homo sapiens) (UniProt O14965); assay: Selectivity interaction (Kinase panel (DSF assay)) EUB0001489b STK6
T2 sequence (whole entry): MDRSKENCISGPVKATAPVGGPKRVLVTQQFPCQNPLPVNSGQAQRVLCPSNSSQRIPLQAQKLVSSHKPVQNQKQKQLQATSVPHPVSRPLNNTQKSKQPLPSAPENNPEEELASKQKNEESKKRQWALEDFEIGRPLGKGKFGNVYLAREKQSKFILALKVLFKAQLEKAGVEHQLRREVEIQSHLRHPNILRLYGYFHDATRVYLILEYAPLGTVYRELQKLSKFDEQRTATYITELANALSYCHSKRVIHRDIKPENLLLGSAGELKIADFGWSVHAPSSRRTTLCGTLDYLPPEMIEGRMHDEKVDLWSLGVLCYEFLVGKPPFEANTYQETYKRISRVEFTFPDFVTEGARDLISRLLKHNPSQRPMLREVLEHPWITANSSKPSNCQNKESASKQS

[6] = molecular target: Calcium/calmodulin-dependent protein kinase type II subunit gamma (Homo sapiens) (UniProt Q13555); assay: Selectivity interaction (LanthaScreen Eu Kinase Binding Assay) EUB0001632a CAMK2G; settings: at 10 µM
[7] = molecular target: Tyrosine-protein kinase JAK1 (Homo sapiens, UniProt P23458); assay: Selectivity interaction (Kinase panel (Z-LYTE Assay)) EUB0001632a JAK1; settings: at 10 µM
Sequence of Tyrosine-protein kinase JAK1 (P23458 whole entry): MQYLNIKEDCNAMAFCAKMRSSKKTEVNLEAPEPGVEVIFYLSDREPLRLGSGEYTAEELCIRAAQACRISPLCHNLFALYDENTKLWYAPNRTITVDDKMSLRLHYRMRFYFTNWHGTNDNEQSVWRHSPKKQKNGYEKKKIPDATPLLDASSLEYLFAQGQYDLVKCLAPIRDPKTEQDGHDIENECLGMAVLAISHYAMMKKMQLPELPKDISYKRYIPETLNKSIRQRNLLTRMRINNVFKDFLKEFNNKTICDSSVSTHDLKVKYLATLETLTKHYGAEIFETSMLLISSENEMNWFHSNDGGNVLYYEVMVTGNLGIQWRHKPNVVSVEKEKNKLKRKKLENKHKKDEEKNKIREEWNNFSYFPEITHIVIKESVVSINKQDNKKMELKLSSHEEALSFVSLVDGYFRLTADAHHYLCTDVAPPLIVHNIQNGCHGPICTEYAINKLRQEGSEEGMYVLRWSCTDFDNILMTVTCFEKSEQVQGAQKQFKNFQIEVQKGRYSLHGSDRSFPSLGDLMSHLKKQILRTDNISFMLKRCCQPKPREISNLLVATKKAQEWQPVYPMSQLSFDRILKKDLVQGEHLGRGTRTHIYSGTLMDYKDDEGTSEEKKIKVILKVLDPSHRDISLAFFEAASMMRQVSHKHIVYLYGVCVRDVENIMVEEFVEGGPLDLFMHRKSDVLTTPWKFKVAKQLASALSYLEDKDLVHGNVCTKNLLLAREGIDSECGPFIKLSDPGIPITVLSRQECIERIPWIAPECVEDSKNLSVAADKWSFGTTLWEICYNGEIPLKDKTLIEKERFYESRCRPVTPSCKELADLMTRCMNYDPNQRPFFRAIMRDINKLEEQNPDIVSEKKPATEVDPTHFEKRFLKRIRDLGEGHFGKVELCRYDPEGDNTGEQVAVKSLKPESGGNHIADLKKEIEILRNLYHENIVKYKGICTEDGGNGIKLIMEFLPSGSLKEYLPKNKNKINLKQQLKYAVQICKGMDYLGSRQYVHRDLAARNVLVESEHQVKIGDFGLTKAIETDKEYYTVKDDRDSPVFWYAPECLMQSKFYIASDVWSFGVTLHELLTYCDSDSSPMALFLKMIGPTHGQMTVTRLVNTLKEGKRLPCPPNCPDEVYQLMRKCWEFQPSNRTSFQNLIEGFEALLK

[8] = molecular target: RAC-gamma serine/threonine-protein kinase (Homo sapiens, UniProt Q9Y243); assay: Selectivity interaction (KinomeScan (DiscoverX)) EUB0000607a AKT3; settings: at 10 µM
Sequence of RAC-gamma serine/threonine-protein kinase (Q9Y243 whole entry): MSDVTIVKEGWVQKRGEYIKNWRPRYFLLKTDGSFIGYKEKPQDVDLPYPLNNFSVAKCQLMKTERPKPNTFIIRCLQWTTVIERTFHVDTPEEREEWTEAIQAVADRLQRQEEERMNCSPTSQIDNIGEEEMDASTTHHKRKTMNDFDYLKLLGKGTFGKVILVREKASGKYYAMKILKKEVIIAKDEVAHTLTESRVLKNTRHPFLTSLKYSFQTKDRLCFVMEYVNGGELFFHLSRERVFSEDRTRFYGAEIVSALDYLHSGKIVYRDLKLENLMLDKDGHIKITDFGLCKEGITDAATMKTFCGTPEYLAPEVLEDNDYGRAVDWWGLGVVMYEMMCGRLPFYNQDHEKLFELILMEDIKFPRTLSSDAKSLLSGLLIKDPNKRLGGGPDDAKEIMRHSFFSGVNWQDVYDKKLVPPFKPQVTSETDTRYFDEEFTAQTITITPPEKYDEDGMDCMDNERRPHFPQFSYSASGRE

[9] = molecular target: Cyclin-dependent kinase 11B (Homo sapiens) (UniProt P21127); assay: Selectivity interaction (KinomeScan (DiscoverX)) EUB0000607a CDK11B; settings: at 10 µM
Sequence of Cyclin-dependent kinase 11B (Homo sapiens) (P21127 whole entry): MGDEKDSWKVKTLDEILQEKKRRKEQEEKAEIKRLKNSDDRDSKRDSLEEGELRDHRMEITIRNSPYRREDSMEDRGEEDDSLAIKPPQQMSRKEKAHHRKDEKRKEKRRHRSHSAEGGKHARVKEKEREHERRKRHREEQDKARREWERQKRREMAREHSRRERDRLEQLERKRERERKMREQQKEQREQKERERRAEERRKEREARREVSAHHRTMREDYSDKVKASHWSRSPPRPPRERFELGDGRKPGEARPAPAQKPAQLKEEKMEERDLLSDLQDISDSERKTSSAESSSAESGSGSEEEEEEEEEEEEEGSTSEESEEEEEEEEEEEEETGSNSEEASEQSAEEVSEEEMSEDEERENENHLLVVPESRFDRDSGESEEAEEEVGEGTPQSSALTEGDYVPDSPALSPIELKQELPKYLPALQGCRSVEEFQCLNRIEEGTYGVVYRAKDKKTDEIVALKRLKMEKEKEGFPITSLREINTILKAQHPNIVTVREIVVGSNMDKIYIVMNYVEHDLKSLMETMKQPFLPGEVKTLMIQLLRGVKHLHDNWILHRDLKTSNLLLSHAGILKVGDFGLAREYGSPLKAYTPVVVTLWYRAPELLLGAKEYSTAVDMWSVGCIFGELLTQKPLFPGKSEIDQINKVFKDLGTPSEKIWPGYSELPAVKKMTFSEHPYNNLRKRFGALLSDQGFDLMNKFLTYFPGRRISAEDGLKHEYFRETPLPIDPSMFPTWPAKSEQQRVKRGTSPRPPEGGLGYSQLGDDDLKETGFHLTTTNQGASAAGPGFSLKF

[10] = molecular target: Serine/threonine-protein kinase 10 (Homo sapiens) (UniProt O94804); assay: Selectivity interaction (KinomeScan (DiscoverX)) EUB0000607a STK10; settings: at 10 µM
Sequence of Serine/threonine-protein kinase 10 (Homo sapiens) (O94804 whole entry, looked up): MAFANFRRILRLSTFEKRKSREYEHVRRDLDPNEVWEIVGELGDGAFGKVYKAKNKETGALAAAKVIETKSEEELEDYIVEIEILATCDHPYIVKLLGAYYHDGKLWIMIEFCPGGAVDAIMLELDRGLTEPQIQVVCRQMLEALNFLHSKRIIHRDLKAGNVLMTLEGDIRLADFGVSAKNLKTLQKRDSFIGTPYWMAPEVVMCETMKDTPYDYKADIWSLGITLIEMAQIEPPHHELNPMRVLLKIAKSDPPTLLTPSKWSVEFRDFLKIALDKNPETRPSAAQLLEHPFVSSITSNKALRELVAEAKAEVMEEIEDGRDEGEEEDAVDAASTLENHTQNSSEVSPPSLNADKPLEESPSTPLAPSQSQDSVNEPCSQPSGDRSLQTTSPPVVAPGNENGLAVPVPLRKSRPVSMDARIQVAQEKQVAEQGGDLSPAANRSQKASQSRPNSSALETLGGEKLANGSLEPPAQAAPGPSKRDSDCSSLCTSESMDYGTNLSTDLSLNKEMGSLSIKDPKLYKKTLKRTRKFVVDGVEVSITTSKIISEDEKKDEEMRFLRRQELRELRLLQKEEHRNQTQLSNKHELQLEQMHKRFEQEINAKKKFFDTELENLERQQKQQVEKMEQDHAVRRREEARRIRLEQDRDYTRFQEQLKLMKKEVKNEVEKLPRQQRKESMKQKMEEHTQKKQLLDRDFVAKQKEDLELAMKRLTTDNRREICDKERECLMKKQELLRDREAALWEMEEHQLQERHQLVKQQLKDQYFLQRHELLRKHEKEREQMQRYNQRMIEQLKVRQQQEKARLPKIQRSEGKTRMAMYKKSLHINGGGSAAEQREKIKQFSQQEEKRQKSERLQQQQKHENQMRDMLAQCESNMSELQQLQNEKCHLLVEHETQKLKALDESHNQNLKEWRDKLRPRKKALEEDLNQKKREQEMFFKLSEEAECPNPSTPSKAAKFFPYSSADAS

[11] = molecular target: Serine/threonine-protein kinase 26 (Homo sapiens, UniProt Q9P289); assay: Selectivity interaction (KinomeScan (DiscoverX)) EUB0001049a STK26; settings: at 1 µM
Aurora kinase B = Aurora kinase B (Homo sapiens, UniProt Q96GD4); assay: Selectivity interaction (KinomeScan (DiscoverX)) EUB0000595a AURKB; settings: at 10 µM
Sequence of Aurora kinase B (Q96GD4 whole entry): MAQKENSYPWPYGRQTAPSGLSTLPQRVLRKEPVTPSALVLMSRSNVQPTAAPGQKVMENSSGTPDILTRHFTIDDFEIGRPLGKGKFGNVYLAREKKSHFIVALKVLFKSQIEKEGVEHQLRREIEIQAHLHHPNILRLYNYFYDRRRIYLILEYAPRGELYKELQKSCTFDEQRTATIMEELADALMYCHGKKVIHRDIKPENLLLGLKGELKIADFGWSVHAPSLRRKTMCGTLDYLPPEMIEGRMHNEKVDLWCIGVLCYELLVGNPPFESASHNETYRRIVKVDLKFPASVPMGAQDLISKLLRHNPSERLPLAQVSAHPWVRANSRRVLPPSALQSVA

[12] = molecular target: Cyclin-dependent kinase 18 (Homo sapiens) (UniProt Q07002); assay: Selectivity interaction (KinomeScan (DiscoverX)) EUB0000595a CDK18; settings: at 10 µM
[13] = molecular target: T3, Serine/threonine-protein kinase tousled-like 1 (Homo sapiens) (UniProt Q9UKI8); settings: at 10 µM
T3 sequence (whole entry): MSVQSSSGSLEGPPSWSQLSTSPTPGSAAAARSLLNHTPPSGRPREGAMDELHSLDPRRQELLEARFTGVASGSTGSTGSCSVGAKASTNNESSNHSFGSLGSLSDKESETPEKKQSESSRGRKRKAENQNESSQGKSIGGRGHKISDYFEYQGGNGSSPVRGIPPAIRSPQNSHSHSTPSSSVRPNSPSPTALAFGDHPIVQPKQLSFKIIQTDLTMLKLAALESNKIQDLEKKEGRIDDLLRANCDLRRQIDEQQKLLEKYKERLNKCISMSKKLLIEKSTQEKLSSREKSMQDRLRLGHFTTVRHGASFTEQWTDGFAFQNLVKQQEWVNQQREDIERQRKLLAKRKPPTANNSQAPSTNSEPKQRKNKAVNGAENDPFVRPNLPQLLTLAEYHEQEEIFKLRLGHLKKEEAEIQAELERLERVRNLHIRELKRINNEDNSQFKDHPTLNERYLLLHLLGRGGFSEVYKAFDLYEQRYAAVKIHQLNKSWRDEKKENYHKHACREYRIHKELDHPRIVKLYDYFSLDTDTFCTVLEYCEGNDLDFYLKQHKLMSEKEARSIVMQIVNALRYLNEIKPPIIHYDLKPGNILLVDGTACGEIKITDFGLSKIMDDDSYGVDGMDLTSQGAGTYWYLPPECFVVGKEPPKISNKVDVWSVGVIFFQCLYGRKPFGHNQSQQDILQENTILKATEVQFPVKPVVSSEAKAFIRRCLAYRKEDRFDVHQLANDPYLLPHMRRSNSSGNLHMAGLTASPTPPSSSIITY

[14] = molecular target: Calcium/calmodulin-dependent protein kinase type 1G (Homo sapiens) (UniProt Q96NX5); assay: Selectivity interaction (Ambit KINOMEscan and KiNATiv profiling in Jurkat cells) EUB0000090b CAMK1G; format: cell-based; settings: at 1 µM
[15] = Selectivity interaction (Ambit KINOMEscan and KiNATiv profiling in Jurkat cells) EUB0000090b CDPK1; settings: Selectivity number of off-targets 9; Selectivity number of targets 456; Source Knowledge https://www.nature.com/articles/nchembio.2166; at 1 µM

Sequence of Receptor tyrosine-protein kinase erbB-4 (Q15303 whole entry): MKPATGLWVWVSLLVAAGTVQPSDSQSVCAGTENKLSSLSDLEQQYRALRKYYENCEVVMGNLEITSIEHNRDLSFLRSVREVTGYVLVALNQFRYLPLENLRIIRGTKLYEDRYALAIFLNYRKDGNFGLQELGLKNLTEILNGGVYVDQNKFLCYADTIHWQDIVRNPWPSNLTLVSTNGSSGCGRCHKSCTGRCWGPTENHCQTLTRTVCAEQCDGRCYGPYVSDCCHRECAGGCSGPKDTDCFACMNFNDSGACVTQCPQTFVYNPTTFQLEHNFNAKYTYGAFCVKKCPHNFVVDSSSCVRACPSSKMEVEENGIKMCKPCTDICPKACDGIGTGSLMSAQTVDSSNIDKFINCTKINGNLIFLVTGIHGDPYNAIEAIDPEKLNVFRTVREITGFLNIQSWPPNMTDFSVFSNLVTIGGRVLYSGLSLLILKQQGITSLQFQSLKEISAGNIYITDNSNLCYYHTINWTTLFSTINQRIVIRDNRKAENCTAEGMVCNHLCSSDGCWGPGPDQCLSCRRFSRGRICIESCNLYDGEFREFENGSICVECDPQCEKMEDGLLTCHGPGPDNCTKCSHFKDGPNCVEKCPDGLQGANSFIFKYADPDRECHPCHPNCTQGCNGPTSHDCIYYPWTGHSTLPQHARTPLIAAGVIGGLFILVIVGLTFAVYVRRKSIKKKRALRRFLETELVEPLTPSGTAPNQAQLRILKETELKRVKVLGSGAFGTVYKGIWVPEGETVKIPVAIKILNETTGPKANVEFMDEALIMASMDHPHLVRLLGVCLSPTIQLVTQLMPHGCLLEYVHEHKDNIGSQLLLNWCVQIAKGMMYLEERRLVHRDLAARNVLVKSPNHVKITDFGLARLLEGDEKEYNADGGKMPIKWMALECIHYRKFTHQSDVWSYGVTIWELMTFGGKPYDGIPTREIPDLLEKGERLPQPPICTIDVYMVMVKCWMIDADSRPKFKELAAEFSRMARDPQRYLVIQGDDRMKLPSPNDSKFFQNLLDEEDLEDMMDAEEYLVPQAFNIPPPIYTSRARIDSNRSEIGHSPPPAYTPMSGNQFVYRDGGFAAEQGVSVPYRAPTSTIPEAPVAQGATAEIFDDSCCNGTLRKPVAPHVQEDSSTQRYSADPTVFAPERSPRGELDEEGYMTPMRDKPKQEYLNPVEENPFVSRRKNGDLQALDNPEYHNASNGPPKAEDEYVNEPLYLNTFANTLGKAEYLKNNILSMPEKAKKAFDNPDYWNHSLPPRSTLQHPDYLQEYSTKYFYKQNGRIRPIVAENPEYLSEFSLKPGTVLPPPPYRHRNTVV

Work on COc1cc(N(C)c2ccnc3ccc(C(F)(F)F)cc23)cc(OC)c1OC yielded a % binding [1] of 81%, a % binding [2] of 100% and a % binding [3] of 94%.
In the case of Nc1cnc(N2CCc3cc(S(=O)(=O)Nc4c(F)cc(Cl)cc4F)cc(N4CCCC4=O)c32)nc1 [TP-020n], the % of inhibition (D(1A) dopamine receptor) was -8.35%.
Compound O=C(NOC[C@H](O)CO)c1ccc(F)c(F)c1Nc1ccc(I)cc1F has a % of control [4] of 75%.
Work on CN1CCN(C(=O)c2ccc3cc2OCCOCCNc2ccn4ncc-3c4n2)CC1 yielded a dTM [5] of 4.2 K.
Cn1cc(-n2cnc3c(NCc4nc5cc(Cl)c(Cl)cc5[nH]4)nc(N4CCOCC4)nc32)cn1 showed a % of inhibition [6] of -8.35% and a % of control [7] of -3.66%.
In the case of CNC(=O)Nc1ccc(-c2nc(N3CC4CCC(C3)O4)c3cnn(C4CCC5(CC4)OCCO5)c3n2)cc1, the % of control [8] was 86%, the % of control [9] was 100% and the % of control [10] was 99%.
Work on COc1cc(Nc2nc(C)cc(-c3cnn4nc(OC)ccc34)n2)cc(C(F)(F)F)c1 yielded a % of control [11] of 85%.
Compound COCC(=O)NC/C=C/c1ccc2ncnc(Nc3ccc(Oc4ccc(C)nc4)c(C)c3)c2c1 [CP-724714] has a % of control (Aurora kinase B) of 100%, a % of control [12] of 99% and a % of control [13] of 79%.
In the case of CN(C)C/C=C/C(=O)Nc1ccc(C(=O)N2CCCC(Nc3ncc(Cl)c(-c4c[nH]c5ccccc45)n3)C2)cc1 (configuration not stated), the % of control [14] was 81% and the “% of control” value [15] was 7%.
